Source: ChEMBL document CHEMBL1158812, “Monoterpene lactones from the seeds of Nephelium lappaceum” (2005)

What was measured:
Type in all cases: functional
Staphylococcus aureus [1] = assay: Antibacterial activity against Staphylococcus aureus UPCC 1143 at 30 ug by agar well method; conditions: read-out: IZ
Staphylococcus aureus [2] = assay: Antibacterial activity against Staphylococcus aureus UPCC 1143 assessed as activity index at 30 ug by agar well method relative to control
Escherichia coli [3] = assay: Antibacterial activity against Escherichia coli UPCC 1195 at 30 ug by agar well method; conditions: read-out: IZ
Escherichia coli [4] = assay: Antibacterial activity against Escherichia coli UPCC 1195 assessed as activity index at 30 ug by agar well method relative to control
Pseudomonas aeruginosa [5] = assay: Antibacterial activity against Pseudomonas aeruginosa UPCC 1244 assessed as activity index at 30 ug by agar well method relative to control
Pseudomonas aeruginosa [6] = assay: Antibacterial activity against Pseudomonas aeruginosa UPCC 1244 at 30 ug by agar well method; conditions: read-out: IZ
Bacillus subtilis [7] = assay: Antibacterial activity against Bacillus subtilis UPCC 1295 at 30 ug by agar well method; conditions: read-out: IZ
Bacillus subtilis [8] = assay: Antibacterial activity against Bacillus subtilis UPCC 1295 assessed as activity index at 30 ug by agar well method relative to control
Aspergillus niger [9] = assay: Antimicrobial activity against Aspergillus niger UPCC 4219 assessed as activity index at 30 ug by agar well method relative to control
Candida albicans [10] = assay: Antimicrobial activity against Candida albicans UPCC 2168 assessed as activity index at 30 ug by agar well method relative to control
Candida albicans [11] = assay: Antimicrobial activity against Candida albicans UPCC 2168 at 30 ug by agar well method; conditions: read-out: IZ
Aspergillus niger [12] = assay: Antimicrobial activity against Aspergillus niger UPCC 4219 at 30 ug by agar well method; conditions: read-out: IZ
[13] = test system: Trichophyton mentagrophytes; assay: Antimicrobial activity against Trichophyton mentagrophytes UPCC 4193 at 30 ug by agar well method; conditions: read-out: IZ
[14] = test system: Trichophyton mentagrophytes; assay: Antimicrobial activity against Trichophyton mentagrophytes UPCC 4193 assessed as activity index at 30 ug by agar well method relative to control

| Structure (SMILES) | zone of inhibition at 30 µg/disc (Staphylococcus aureus [1]) | Activity_index (Staphylococcus aureus [2]) | zone of inhibition at 30 µg/disc (Escherichia coli [3]) | Activity_index (Escherichia coli [4]) | Activity_index (Pseudomonas aeruginosa [5]) | zone of inhibition at 30 µg/disc (Pseudomonas aeruginosa [6]) | zone of inhibition at 30 µg/disc (Bacillus subtilis [7]) | Activity_index (Bacillus subtilis [8]) | Activity_index (Aspergillus niger [9]) | Activity_index (Candida albicans [10]) | zone of inhibition at 30 µg/disc (Candida albicans [11]) | zone of inhibition at 30 µg/disc (Aspergillus niger [12]) | zone of inhibition at 30 µg/disc [13] | Activity_index [14] |
| --- | --- | --- | --- | --- | --- | --- | --- | --- | --- | --- | --- | --- | --- | --- |
| O=C(N[C@H](CO)[C@H](O)c1ccc([N+](=O)[O-])cc1)C(Cl)Cl [CHLORAMPHENICOL] | 25 mm | 3.2 | 23 mm | 2.8 | 1.3 | 14 mm | 20 mm | 2.3 | – | – | – | – | – | – |
| O=C1C[C@@]2(CO1)CO[C@@]1(CO)CC(=O)O[C@@H]21 [LAPPACEOLIDE A] | 11 mm | 0.1 | 11 mm | 0.1 | 0.2 | 12 mm | – | 0 | 0.2 | 0.3 | 13 mm | 12 mm | 14 mm | 0.4 |
| O=C1C[C@]2(CO1)CO[C@@]1(CO)CC(=O)O[C@@H]21 [LAPPACEOLIDE B] | 11 mm | 0.1 | 11 mm | 0.1 | 0.2 | 12 mm | – | 0 | 0.1 | 0.3 | 13 mm | 11 mm | 13 mm | 0.3 |
